# Laboratory results reported in patent publication US20100305068A1, “COMPOUNDS AND METHODS FOR MODULATING PROTEIN TRAFFICKING” (priority 2006, published 2010).
# Where two headings read alike, the source gives them in different places.
# Test system: pdr5 ypt1^ts cells
# Experiment: microbe, parasite or virus in culture
# Type: cell-based, yeast
# Settings: for minimal effective concentration: Saccharomyces cerevisiae, lowest concentration tested giving growth above the 0 μM background, read-out: ypt1-ts MRC (minimal rescue concentration); for minimal effective concentration / optical density, ypt1-ts, 0.39 / optical density, ypt1-ts, 0.78 / optical density, ypt1-ts, 1.56 / optical density, ypt1-ts, 3.13 / optical density, ypt1-ts, 6.25 / optical density, ypt1-ts, 12.5 / optical density, ypt1-ts, 25: Table 2; for optical density, ypt1-ts, 0.39: 0.39 μM compound; for optical density, ypt1-ts, 0.39 / optical density, ypt1-ts, 0.78 / optical density, ypt1-ts, 1.56 / optical density, ypt1-ts, 3.13 / optical density, ypt1-ts, 6.25 / optical density, ypt1-ts, 12.5 / optical density, ypt1-ts, 25: background (0 μM) 0.058; for optical density, ypt1-ts, 0.78: 0.78 μM compound; for optical density, ypt1-ts, 1.56: 1.56 μM compound; for optical density, ypt1-ts, 3.13: 3.13 μM compound; for optical density, ypt1-ts, 6.25: 6.25 μM compound; for optical density, ypt1-ts, 12.5: 12.5 μM compound; for optical density, ypt1-ts, 25: 25 μM compound
# From the text: The activity of the compounds as modulators of protein trafficking may be measured in the assays described herein that evaluate the ability of a compound to rescue an impairment in protein trafficking. For example, the yeast mutant cell line ypt1^ts can be used to identify compounds that rescue cells from the lethal phenotype of a mutant YPT1 allele (see, e.g., Examples and Schmitt et al. (1988) Cell 53:635-47). The activity may be measured, for example, in a whole yeast cell assay using 384-well screening protocol and an optical density measurement.
# The yeast mutant cell line ypt1^ts suppresses, in a temperature dependent fashion, the dominant-lethal phenotype of a mutant YPT1 allele (Schmitt et al. (1988) Cell 53:635-47). ypt1^ts cells grow normally at temperatures up to 30° C., but are growth arrested at 37° C. (Id.).
# A library of compounds (“The Spectrum Collection”) obtained from Microsource Discovery Systems, Inc. (Gaylordsville, Conn.) was screened to assess the ability of individual compounds to restore growth of ypt1^ts cells. Screening was carried out using ypt1^ts cells containing a mutation in the pdr5 gene (resulting in inactivation of a membrane efflux pump). The effect of the compounds was measured in pdr5 ypt1^ts cells cultured at 37° C.
# [1] = Table 3, 3.13 uM compound, 37° C., background (0 uM) 0.077
# [2] = Table 3, 12.5 uM compound, 37° C., background (0 uM) 0.077
# [3] = Table 3, 50 uM compound, 37° C., background (0 uM) 0.077
SMILES,minimal effective concentration (37° C.) [µM],"optical density, ypt1-ts, 0.39 (37° C.)","optical density, ypt1-ts, 0.78 (37° C.)","optical density, ypt1-ts, 1.56 (37° C.)","optical density, ypt1-ts, 3.13 (37° C.)","optical density, ypt1-ts, 6.25 (37° C.)","optical density, ypt1-ts, 12.5 (37° C.)","optical density, ypt1-ts, 25 (37° C.)","optical density, 3.13 uM [1]","optical density, 12.5 uM [2]","optical density, 50 uM [3]",also measured
C=CCCCCCCCCCCCC(O)CC(O)CO (centres unmarked) [AVOCADENE],6.25,0.097,0.074,0.09,0.108,0.134,0.209,0.408,,,,
C#CCCCCCCCCCCCC(O)CC(O)COC(C)=O (centres unmarked) [AVOCADYNE ACETATE],,,,,,,,,0.389,0.406,0.039,
O=C1c2ccccc2-c2cccc3cccc1c23 [BENZANTHRONE],3.13,0.108,0.09,0.123,0.263,0.491,0.547,0.383,,,,
COc1ccc(-c2coc3cc(O)cc(O)c3c2=O)cc1 [BIO- CHANIN A],,,,,,,,,0.112,0.297,0.055,
CC1(C)CC2C1CCC1(CBr)CC[C@H]3C(CC(=O)O)C(=O)OC23C1 (some centres unmarked) [BROMO-3-HYDROXY- 4-(SUCCIN-2-YL)- CARYOLANE gamma- LACTONE],6.25,0.091,0.079,0.091,0.101,0.139,0.245,0.417,,,,
COC(=O)C[C@H]1C(C)(C)C(=O)[C@@H]2CC3C4=CC(=O)O[C@@H](c5ccoc5)[C@]4(C)CCC3[C@]1(C)C2=O (some centres unmarked) [CARAPIN],,,,,,,,,0.22,0.357,0.5,
CNC(=O)Oc1cccc2c1OC(C)(C)C2 [CARBO- FURAN],,,,,,,,,0.176,0.264,0.239,
C=C1CCC(OC(C)=O)/C(C)=C/C[C@@H]2[C@@H]1CC2(C)C (some centres unmarked) [CARY[…]],12.5,0.087,0.076,0.084,0.1,0.109,0.239,0.258,,,,
CC1(C)C(=O)C=C[C@@]2(C)C1=C(O)C(=O)[C@]1(C)[C@@H]2CC[C@@]2(C)[C@H](c3ccoc3)C[C@H]3O[C@]321 [CEDRELONE],1.56,0.221,0.124,0.264,0.49,0.532,0.541,0.496,,,,
"CC(CCC(=O)O)[C@H]1CCC2C3C(CC[C@@]21C)[C@@]1(C)CC[C@@H](O)C[C@H]1C[C@H]3O (some centres unmarked) [CHENODIOL, reference compound]",,,,,,,,,0.126,0.285,0.15,
CCOP(=S)(OCC)Oc1nc(Cl)c(Cl)cc1Cl [CHLOR- PYRIFOS],,,,,,,,,0.122,0.166,0.253,
"CC(=O)O[C@]1(C(C)=O)CC[C@H]2[C@@H]3C=C(Cl)C4=CC(=O)CC[C@]4(C)[C@H]3CC[C@@]21C [CHLORMADINONE ACETATE, reference compound]",12.5,0.193,0.078,0.088,0.112,0.11,0.2,0.296,,,,
CC(C)OC(=O)Nc1cccc(Cl)c1 [CHLORPROPHAM],25,0.086,0.072,0.081,0.09,0.096,0.101,0.145,,,,
CC1=C2C(=CO[C@H](C)[C@H]2C)C(=O)C(C(=O)O)=C1O [CITRININ],,,,,,,,,0.102,0.158,0.38,
"Cl.Clc1cccc(Cl)c1N=C1NCCN1 [CLONIDINE HYDRO- CHLORIDE, reference compound]",,,,,,,,,,,,"optical density, 3.13 uM: 0.237; optical density, 12.5 uM: 0.095; optical density, 50 uM: 0.064"
C=C1C(=O)OC2CC1C(OC(C)=O)C/C(C)=C/CC/C(C)=C/CC[C@]2(C)O (some centres unmarked) [CRASSIN ACETATE],12.5,0.084,0.068,0.075,0.099,0.107,0.324,0.443,,,,
CC1(C)C(=O)C=C[C@@]2(C)C1CC(=O)[C@]1(C)C2CC[C@@]2(C)[C@H](c3ccoc3)OC(=O)[C@H]3O[C@]321 (some centres unmarked) [DEACETOXY- 7-OXOGEDUNIN],,,,,,,,,0.594,0.63,0.642,
CC1(C)C(=O)C=C[C@@]2(C)C1C[C@@H](O)[C@]1(C)C2CC[C@@]2(C)[C@H](c3ccoc3)OC(=O)[C@H]3O[C@]321 (some centres unmarked) [DEACETYL- GEDUNIN],,,,,,,,,0.116,0.185,0.377,
CC(C)c1ccc2c(c1)CCC1C(C)(C(N)=O)CCCC21C (centres unmarked) [DEHYDRO- ABIETAMIDE],,,,,,,,,0.272,0.419,0.041,
C=CCCCCCCCCCCC/C=C/C(O)COC(C)=O (centres unmarked) [DEHYDRO- AVOCATIN - 1-ACETATE],,,,,,,,,0.116,0.329,0.365,
COc1c2occc2cc2c(=O)c3c(oc12)COc1cc2c(cc1-3)OCO2 [DEHYDRO- PACHYRRHIZONE],12.5,0.1,0.072,0.088,0.11,0.124,0.149,0.211,,,,
CC(=O)O[C@@H]1CC2C(C)(C)CCC[C@]2(C)C2CC[C@]3(C)C(=CC(=O)O[C@H]3c3ccoc3)[C@@]21C (some centres unmarked) [DEOXO- DEOXY- DIHYDRO- GEDUNIN],,,,,,,,,0.245,0.479,0.452,
CC1(C)C2CC(=O)O[C@@]3(C)C4=CC(=O)O[C@@H](c5ccoc5)[C@]4(C)CCC3[C@@]2(C)C=C[C@H]1O (some centres unmarked) [DEOXY- ANDIROBIN LACTONE],,,,,,,,,0.723,0.678,0.642,
"CC(CCC(=O)O)[C@H]1CCC2C3CC[C@H]4C[C@H](O)CC[C@]4(C)C3C[C@H](O)[C@@]21C (some centres unmarked) [DEOXY- CHOLIC ACID, reference compound]",,,,,,,,,0.233,0.481,0.133,
CC(=O)O[C@@H]1CC2C(C)(C)C(=O)C=C[C@]2(C)C2CC[C@]3(C)C(=CC(=O)O[C@H]3c3ccoc3)[C@@]21C (some centres unmarked) [DEOXY- GEDUNIN],,,,,,,,,0.092,0.141,0.328,
"COc1ccc2c(c1)OCC(Cc1ccc(OC)c(OC(C)=O)c1)C2=O (centres unmarked) [DEOXY- SAPPANONE B 7,3′-DI- METHYL ETHER ACETATE]",,,,,,,,,0.137,0.17,0.374,
COc1ccc2c(c1)OCC(Cc1ccc(OC)c(OC)c1)C2=O (centres unmarked) [DEOXY- SAPPANONE B TRIMETHYL ETHER],,,,,,,,,0.107,0.203,0.514,
CC1(C)C2CC(=O)O[C@]3(C)C4=CC(=O)O[C@@H](c5ccoc5)[C@]4(C)CCC3[C@@]2(C)C=C[C@H]1O (some centres unmarked) [DEOXYANDIROBIN- LACTONE],3.13,0.107,0.082,0.089,0.137,0.249,0.524,0.613,,,,
